Assay results reported in paper PMC3355380, “Back to the Future: Lessons Learned in Modern Target-based and Whole-Cell Lead Optimization of Antimalarials” (Current Topics in Medicinal Chemistry, 2012).
Like-named read-outs stand apart in the source and are kept apart here. One block for each compound: values may come before it.

Tests used:
P. falciparum 3D7 = P. falciparum 3D7 proliferation assay; format: cell-based, Plasmodium falciparum; conditions: for EC50: Plasmodium falciparum, 3D7
Text: (§1) We screened both our in-house compound collection (~2.3M compounds) and natural products library (12,000 compounds) using a cell based Plasmodium falciparum proliferation assay. This screen provided data on a large number of chemically diverse anti-malarial compounds. These nearly 5700 hits have been deposited into the public EBI database by GNF/Novartis. A number of these hits originated from kinase-directed libraries and many of which are pan-kinase inhibitors. De-convoluting and eliminating inherent kinase activity with many of these scaffolds while maintaining cellular potency was the first step in the hit-to-lead phase for these particular chemotypes. What follows is a summary of the chemical optimization of some kinase-like and non-kinase scaffolds which came out of the whole-cell screening effort.

P. falciparum W2 = P. falciparum W2 proliferation assay; format: cell-based; conditions: Plasmodium falciparum, mean of two experiments
Text: as §1

[1] = system: fifteen P. falciparum strains; assay: panel of fifteen P. falciparum wild type and drug resistant strains; format: cell-based; conditions: Plasmodium falciparum, read-out: in vitro EC50s across fifteen P. falciparum strains
recombinant PfCDPK1 = recombinant PfCDPK1 (Plasmodium falciparum, UniProt P62344); assay: PfCDPK1 enzyme inhibition; format: biochemical
Chain of recombinant PfCDPK1 (P62344 whole entry): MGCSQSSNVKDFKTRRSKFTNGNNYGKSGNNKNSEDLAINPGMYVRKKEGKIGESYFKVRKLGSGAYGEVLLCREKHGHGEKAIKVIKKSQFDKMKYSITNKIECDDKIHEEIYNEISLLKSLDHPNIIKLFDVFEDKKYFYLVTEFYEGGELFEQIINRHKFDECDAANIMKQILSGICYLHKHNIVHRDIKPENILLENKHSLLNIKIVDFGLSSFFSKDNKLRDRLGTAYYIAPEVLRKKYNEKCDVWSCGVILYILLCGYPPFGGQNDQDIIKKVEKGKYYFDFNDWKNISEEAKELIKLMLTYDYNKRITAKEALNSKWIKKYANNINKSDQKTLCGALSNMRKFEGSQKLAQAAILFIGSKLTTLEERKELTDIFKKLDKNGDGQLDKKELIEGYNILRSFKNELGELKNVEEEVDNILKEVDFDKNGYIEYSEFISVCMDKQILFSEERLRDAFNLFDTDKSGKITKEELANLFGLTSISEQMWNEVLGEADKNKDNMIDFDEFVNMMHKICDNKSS
Text: In P. falciparum, calcium-dependent protein kinase 1 (PfCDPK1) is expressed during schizogony in the blood and sporozoite stages and is ultimately required for parasite invasion of host cells, parasite motility, and potentially cytokinesis. We identified a series of purine-based, ATP competitive kinase inhibitors from a target-based screen of approximately 20,000 compounds on recombinant PfCDPK1 [9]. Of the most promising hits, the 2,6,9-trisubstitutes purines made up the largest class of compounds coming out of the screen and were therefore chosen as a lead series for chemical optimization.

P. falciparum NF54 [2] = system: P. falciparum NF54; design: method as in PMID 20813948; conditions: Fig. 4; cited from earlier work
[3] = system: chloroquine-resistant K1 P. falciparum strain; design: method as in PMID 20813948; conditions: Fig. 4; cited from earlier work
190 kinases = assay: human kinase profile on 190 kinases, biochemical and cellular formats; conditions: biochemical and cellular assay formats
P. falciparum NF54 [4] = assay: P. falciparum NF54 in vitro potency; format: cell-based; conditions: Plasmodium falciparum, spiroindolones, Tables 8 and 9
[5] = metabolic stability in mouse liver microsomes; format: in vitro ADME; conditions: for Liver Microsomes CLint, Mouse: intrinsic clearance, high clearance corresponds to low stability; for half-life: mouse, liver microsomes, read-out: Liver Microsomes t1/2 (min), Mouse
[6] = metabolic stability in human liver microsomes; format: in vitro ADME; conditions: for half-life: human, liver microsomes, read-out: Liver Microsomes t1/2 (min), Human; for Liver Microsomes CLint, Human: intrinsic clearance, high clearance corresponds to low stability
Plasmodium berghei [7] = system: Plasmodium berghei; design: method as in earlier work; conditions: single oral dose at 100 mg/kg; cited from earlier work
in vivo = conditions: mouse, po
in vivo PK in mouse = conditions: in vivo, po
[8] = cytotoxicity on CHO cells; format: cell-based; conditions: Chinese hamster
[9] = cytotoxicity on HEp2 cells; format: cell-based; conditions: human
[10] = cytotoxicity on HeLa cells; format: cell-based; conditions: human
[11] = cytotoxicity on Huh7 cells; conditions: human, Huh7 cells
[12] = target: WT-PfDHFR (wild type PfDHFR); design: method as in PMID 20350951; conditions: cited from earlier work
[13] = target: QM-PfDHFR (quadruple mutant PfDHFR); design: method as in PMID 20350951; conditions: cited from earlier work
Plasmodium berghei [14] = assay: P. berghei murine model; format: in vivo; conditions: for Activity (%): average parasitemia reduction; for Survival: untreated mice 6-7 days
Huh7 = assay: cytotoxicity on Huh7 cells; conditions: mean of two experiments
[15] = piperidyl benzamides, mean of two experiments, read-out: P. falciparum 3D7 EC50
[16] = mean of two experiments, read-out: PfCDPK1 IC50
[17] = purines, mean of two experiments, read-out: P. falciparum 3D7 EC50

Compound: N[C@H]1CC[C@H](Nc2nc(Nc3ccc(C(=O)N4CCCCC4)cc3)c3ncn(-c4ccc(OCc5ccccc5)cc4)c3n2)CC1 [Compound 3]
- IC50 (recombinant PfCDPK1; [16]): 4040 nM
- EC50 (P. falciparum 3D7; [17]): 312 nM

Compound: C[C@H]1CCc2c([nH]c3ccccc23)[C@@]2(N1)C(=O)Nc1ccc(Br)cc12 [Compound 22]
- EC50 (P. falciparum NF54 [2]): 10 nM
- EC50 [3]: 16 nM

Compound: C[C@H]1Cc2c([nH]c3cc(Cl)c(F)cc23)[C@@]2(N1)C(=O)Nc1ccc(Cl)cc12 [Compound 30]
- EC50 (P. falciparum NF54 [4]): 0.9 nM
- Liver Microsomes CLint, Mouse [5]: Low
- half-life [5]: 49 min
- half-life [6]: 76 min
- Liver Microsomes CLint, Human [6]: Low
- clearance of P. berghei infection (Plasmodium berghei [7]): completely cleared a P. berghei infection in all treated mice
- bioavailability (in vivo): 100%
- half-life (in vivo PK in mouse): 600 min

Compound: N[C@H]1CC[C@H](Nc2nc(Nc3ccc(C(=O)N4CCCCC4)cc3)c3ncn(-c4cccc(F)c4)c3n2)CC1 [Compound 2, purfalcamine]
- IC50 (recombinant PfCDPK1): 17 nM
- improvement in enzyme potency (2 vs. 3) (recombinant PfCDPK1; compound 2 versus compound 3): greater than 200 fold
- EC50 (P. falciparum 3D7; [17]): 230 nM
- EC50 [8]: 12300 nM
- EC50 [9]: 7200 nM
- EC50 [10]: 7000 nM
- EC50 [11]: 5500 nM

Compound: CCc1nc(N)nc(N)c1-c1ccc(Cl)cc1 [Pyrimethamine]
- Ki [12]: 0.59 ± 0.05 nM
- Ki [13]: 385 ± 163 nM

Compound: CC(C)(N)C(=O)N1CCn2c(nc(-c3ccc(F)cc3)c2Nc2ccc(F)cc2)C1 [Compound 19]
- Activity (%) (Plasmodium berghei [14]; 1 x 30 mg/kg, 7% Tween 80/3% ethanol (20: 75% PEG300/25%D5W)): 99.3%
- Survival (Plasmodium berghei [14]; 1 x 30 mg/kg): 7.7 days
- Activity (%) (Plasmodium berghei [14]; 1 x 100 mg/kg): 99.6%
- Survival (Plasmodium berghei [14]; 1 x 100 mg/kg): 13.3 days
- Activity (%) (Plasmodium berghei [14]; 3 x 30 mg/kg): 99.9%
- Survival (Plasmodium berghei [14]; 3 x 30 mg/kg): 14.0 days
- parasitemia reduction (Plasmodium berghei [14]; at all dosing regimens): more than 99%

Compound: O=C(Nc1cccc(C(F)(F)F)c1)c1cc(N2CCC(N3CCCCC3)CC2)cc(C(F)(F)F)c1 [Compound 13]
- EC50 (P. falciparum 3D7; [15]): 149 nM
- EC50 (P. falciparum W2; piperidyl benzamides): 299 nM

Compound: CCOc1ccc(-n2cnc3c(Nc4ccc(C(=O)N5CCCCC5)cc4)nc(N[C@H]4CC[C@H](N)CC4)nc32)cc1 [Compound 5]
- IC50 (recombinant PfCDPK1): 240 nM
- EC50 (P. falciparum 3D7; [17]): 535 nM

Compound: NC(Cc1ccccc1)C(=O)N1CCn2c(nc(-c3ccccc3)c2Nc2ccc3c(c2)OCO3)C1 (stereo not shown) [Compound 18b]
- EC50 (P. falciparum 3D7; imidazolopiperazine hits, mean of two experiments, read-out: P. falciparum 3D7 EC50): 235 nM
- EC50 (P. falciparum W2; imidazolopiperazine hits): 271 nM
- Cytotoxicity (µM) Huh7 (Huh7): > 10 µM

Continued, in another order:

- EC50 (P. falciparum 3D7; [15]): 140 nM
- EC50 (P. falciparum W2; piperidyl benzamides): 323 nM
- EC50 [1]: 100 to 300 nM
Compound: CC1CCN(C2CCN(c3cc(C(=O)Nc4cccc(Cl)c4)cc(C(F)(F)F)c3)CC2)CC1 [Compound 14]

- IC50 (recombinant PfCDPK1; [16]): 71 nM
- EC50 (P. falciparum 3D7; [17]): > 10000 nM
Compound: N[C@H]1CC[C@H](Nc2nc(Nc3ccc(C(=O)N4CCCCC4)cc3)c3ncn(-c4cccc(C(=O)O)c4)c3n2)CC1 [Compound 6]

- EC50 (P. falciparum 3D7; imidazolopyrimidines, Fig. 2, read-out: 3D7 EC50): 34 nM
- EC50 [1]: < 140 nM
- human kinase profile on 190 kinases (190 kinases): clean human kinase profile
Compound: CN1CCN(c2nc(Nc3ccc(OC(F)(F)F)cc3)cc(Nc3nccn3-c3cccc(C(F)(F)F)c3)n2)CC1 [Compound 17]
- improvement in potency over the hit compound (P. falciparum 3D7; 17 versus 16): greater than 10 fold

- EC50 (P. falciparum NF54 [4]): 3.4 nM
- Liver Microsomes CLint, Mouse [5]: High
- half-life [5]: 4.2 min
- half-life [6]: 10 min
- Liver Microsomes CLint, Human [6]: Med
Compound: C[C@H]1Cc2c([nH]c3ccc(F)cc23)[C@@]2(N1)C(=O)Nc1ccc(Cl)cc12 [Compound 27]
